Assay results reported in US20050070510A1, “Substituted tetracycline compounds as synergistic antifungal agents” (Paratek Pharmaceuticals, Inc., priority 2001, published 2005).

Test system: COS-1 cells
Experiment: In vitro mammalian cytotoxicity assay (Resazurin)

Structure (SMILES) | In Vitro Cytotoxicity
CNc1ccc(NC(=O)Nc2cc(N(C)C)c3c(c2O)C(=O)C2=C(O)[C@]4(C#N)C(=O)C(C(N)=O)=C(O)[C@@H](N(C)C)[C@]4(N)C[C@]2(N)C3)cc1 [SE] | * (toxicities greater than >25 μg/ml are represented by *)
CN(C)[C@@H]1C(O)=C(C(N)=O)C(=O)[C@@]2(C#N)C(O)=C3C(=O)c4c(O)ccc(/C=C/c5ccc(C(F)(F)F)cc5)c4C[C@@]3(N)C[C@@]12N [HK] | ** (toxicities less than 25 μg/mL are represented by **)
CN(C)[C@@H]1C(O)=C(C(N)=O)C(=O)[C@@]2(C#N)C(O)=C3C(=O)c4c(O)ccc(-c5ccc(CNCc6ccccc6)o5)c4C[C@@]3(N)C[C@@]12N [SS] | ** (toxicities less than 25 μg/mL are represented by **)
CN(C)c1cc(-c2ccc3c(c2)OCO3)c(O)c2c1C[C@@]1(N)C[C@@]3(N)[C@H](N(C)C)C(O)=C(C(N)=O)C(=O)[C@@]3(C#N)C(O)=C1C2=O [EH] | ** (toxicities less than 25 μg/mL are represented by **)
CN(C)[C@@H]1C(O)=C(C(N)=O)C(=O)[C@@]2(C#N)C(O)=C3C(=O)c4c(O)c(NC(=O)OCC(C)(C)C)cc(CN)c4C[C@@]3(N)C[C@@]12N [QM] | * (toxicities greater than >25 μg/ml are represented by *)
CN(C)[C@@H]1C(O)=C(C(N)=O)C(=O)[C@@]2(C#N)C(O)=C3C(=O)c4c(O)cccc4[C@H](N)[C@@]3(N)[C@H](OC(=O)CCN3CCCC3)[C@@]12N [BQ] | ** (toxicities less than 25 μg/mL are represented by **)
CN(C)c1cc(CCC2CCCC2)c(O)c2c1C[C@@]1(N)C[C@@]3(N)[C@H](N(C)C)C(O)=C(C(N)=O)C(=O)[C@@]3(C#N)C(O)=C1C2=O [KM] | ** (toxicities less than 25 μg/mL are represented by **)
COC(=O)c1ccc(-c2ccc(O)c3c2C[C@@]2(N)C[C@@]4(N)[C@H](N(C)C)C(O)=C(C(N)=O)C(=O)[C@@]4(C#N)C(O)=C2C3=O)cc1 [EF] | ** (toxicities less than 25 μg/mL are represented by **)
CN(C)c1cc(NCc2ccc([N+](=O)O)cc2)c(O)c2c1C[C@@]1(N)C[C@@]3(N)[C@H](N(C)C)C(O)=C(C(N)=O)C(=O)[C@@]3(C#N)C(O)=C1C2=O [VH] | ** (toxicities less than 25 μg/mL are represented by **)
CN(C)[C@@H]1C(O)=C(C(=O)NC(C)(C)C)C(=O)[C@@]2(C#N)C(O)=C3C(=O)c4c(O)cccc4C(N)[C@@]3(N)[C@H](O)[C@@]12N (some centres unmarked) [DA] | * (toxicities greater than >25 μg/ml are represented by *)
CN(C)c1cc(-c2ccoc2)c(O)c2c1C[C@@]1(N)C[C@@]3(N)[C@H](N(C)C)C(O)=C(C(N)=O)C(=O)[C@@]3(C#N)C(O)=C1C2=O [SN] | ** (toxicities less than 25 μg/mL are represented by **)
CN(C)[C@@H]1C(O)=C(C(N)=O)C(=O)[C@@]2(C#N)C(O)=C3C(=O)c4c(O)ccc(C#CCCC#Cc5ccc(O)c6c5C[C@@]5(N)C[C@@]7(N)[C@H](N(C)C)C(O)=C(C(N)=O)C(=O)[C@@]7(C#N)C(O)=C5C6=O)c4C[C@@]3(N)C[C@@]12N [NC] | * (toxicities greater than >25 μg/ml are represented by *)
CCCC(C)(C)NC(=O)C1=C(O)[C@@H](N(C)C)[C@]2(N)[C@@H](O)[C@@]3(N)C(=C(O)[C@]2(C#N)C1=O)C(=O)c1c(O)ccc(N(C)C)c1[C@@H]3N [BE] | ** (toxicities less than 25 μg/mL are represented by **)
C=CC(O)O[C@H]1[C@@]2(N)C(=C(O)[C@]3(C#N)C(=O)C(C(N)=O)=C(O)[C@@H](N(C)C)[C@]13N)C(=O)c1c(O)cccc1[C@@H]2N (some centres unmarked) [BO] | ** (toxicities less than 25 μg/mL are represented by **)
CN(C)[C@@H]1C(O)=C(C(N)=O)C(=O)[C@@]2(C#N)C(O)=C3C(=O)c4c(ccc(Nc5ccc(-c6ccccc6)s5)c4O)[C@H](N)[C@@]3(N)[C@H](O)[C@@]12N [DT] | ** (toxicities less than 25 μg/mL are represented by **)
CN(C)c1cc(NC(=O)OCC(C)(C)C)c(O)c2c1C[C@@]1(N)C[C@@]3(N)[C@H](N(C)C)C(O)=C(C(N)=O)C(=O)[C@@]3(C#N)C(O)=C1C2=O [DG] | ** (toxicities less than 25 μg/mL are represented by **)
CN(C)[C@@H]1C(O)=C(C(N)=O)C(=O)[C@@]2(C#N)C(O)=C3C(=O)c4c(O)c(CNC(=O)c5cccnc5)cc(CCC5CCCCC5)c4C[C@@]3(N)C[C@@]12N [JC] | ** (toxicities less than 25 μg/mL are represented by **)
CCNC(=O)NCc1cc(N(C)C)c2c(c1O)C(=O)C1=C(O)[C@]3(C#N)C(=O)C(C(N)=O)=C(O)[C@@H](N(C)C)[C@]3(N)C[C@]1(N)C2 [MH] | * (toxicities greater than >25 μg/ml are represented by *)
CN(C)[C@@H]1C(O)=C(C(N)=O)C(=O)[C@@]2(C#N)C(O)=C3C(=O)c4c(O)ccc(/C=C/C(=O)OC(C)(C)C)c4C[C@@]3(N)C[C@@]12N [JD] | * (toxicities greater than >25 μg/ml are represented by *)
CC(=O)c1ccc(NC(=O)NCc2cc(N(C)C)c3c(c2O)C(=O)C2=C(O)[C@]4(C#N)C(=O)C(C(N)=O)=C(O)[C@@H](N(C)C)[C@]4(N)C[C@]2(N)C3)cc1 [NA] | * (toxicities greater than >25 μg/ml are represented by *)
CN(C)c1ccc(-c2cc(N)c(O)c3c2C[C@@]2(N)C[C@@]4(N)C(N(C)C)C(O)=C(C(N)=O)C(=O)[C@@]4(C#N)C(O)=C2C3=O)cc1 (some centres unmarked) [RB] | * (toxicities greater than >25 μg/ml are represented by *)

Structure (SMILES) | In Vitro Cytotoxicity
CC(=O)Nc1ccc(C#Cc2ccc(O)c3c2C[C@@]2(N)C[C@@]4(N)[C@H](N(C)C)C(O)=C(C(N)=O)C(=O)[C@@]4(C#N)C(O)=C2C3=O)cc1 [IU] | * (toxicities greater than >25 μg/ml are represented by *)
CCc1cc(N(C)C)c2c(c1O)C(=O)C1=C(O)[C@]3(C#N)C(=O)C(C(N)=O)=C(O)[C@@H](N(C)C)[C@]3(N)C[C@]1(N)C2 [QZ] | * (toxicities greater than >25 μg/ml are represented by *)
COC(=O)c1cc(N)cc(-c2ccc(O)c3c2C[C@@]2(N)C[C@@]4(N)[C@H](N(C)C)C(O)=C(C(N)=O)C(=O)[C@@]4(C#N)C(O)=C2C3=O)c1 [PT] | * (toxicities greater than >25 μg/ml are represented by *)
CN(C)[C@@H]1C(O)=C(C(N)=O)C(=O)[C@@]2(C#N)C(O)=C3C(=O)c4c(O)c(C(C)(C)C)cc(-c5ccc6c(c5)OCO6)c4C[C@@]3(N)C[C@@]12N [NT] | ** (toxicities less than 25 μg/mL are represented by **)
CN(C)c1cc(CCc2ccccc2)c(O)c2c1C[C@@]1(N)C[C@@]3(N)[C@H](N(C)C)C(O)=C(C(N)=O)C(=O)[C@@]3(C#N)C(O)=C1C2=O [MN] | ** (toxicities less than 25 μg/mL are represented by **)
CN(C)[C@@H]1C(O)=C(C(N)=O)C(=O)[C@@]2(C#N)C(O)=C3C(=O)c4c(O)ccc(-c5cncc(Br)c5)c4C[C@@]3(N)C[C@@]12N [VF] | ** (toxicities less than 25 μg/mL are represented by **)
CN(C)[C@@H]1C(O)=C(C(N)=O)C(=O)[C@@]2(C#N)C(O)=C3C(=O)c4c(O)ccc(C#CC5(C#N)CCCCC5)c4C[C@@]3(N)C[C@@]12N [GA] | ** (toxicities less than 25 μg/mL are represented by **)
CCOC(=O)C(Cc1ccccc1)NCc1ccc(OC)c(-c2ccc(O)c3c2C[C@@]2(N)C[C@@]4(N)[C@H](N(C)C)C(O)=C(C(N)=O)C(=O)[C@@]4(C#N)C(O)=C2C3=O)c1 (some centres unmarked) [OB] | ** (toxicities less than 25 μg/mL are represented by **)
CCCCN(c1ccc2c(c1O)C(=O)C1=C(O)[C@]3(C#N)C(=O)C(C(N)=O)=C(O)[C@@H](N(C)C)[C@]3(N)C[C@]1(N)C2)C1CCN(C)CC1 [RY] | * (toxicities greater than >25 μg/ml are represented by *)
Cc1ccc(-c2ccc(O)c3c2C[C@@]2(N)C[C@@]4(N)[C@H](N(C)C)C(O)=C(C(N)=O)C(=O)[C@@]4(C#N)C(O)=C2C3=O)cc1N [PK] | ** (toxicities less than 25 μg/mL are represented by **)
CC(C)COC(=O)NCc1ccc(O)c2c1C[C@@]1(N)C[C@@]3(N)[C@H](N(C)C)C(O)=C(C(N)=O)C(=O)[C@@]3(C#N)C(O)=C1C2=O [NO] | ** (toxicities less than 25 μg/mL are represented by **)
COC(=O)C(CO)NC(=O)c1cccc(-c2ccc(O)c3c2C[C@@]2(N)C[C@@]4(N)C(N(C)C)C(O)=C(C(N)=O)C(=O)[C@@]4(C#N)C(O)=C2C3=O)c1 (some centres unmarked) [QT] | ** (toxicities less than 25 μg/mL are represented by **)
CN(C)[C@@H]1C(O)=C(C(N)=O)C(=O)[C@@]2(C#N)C(O)=C3C(=O)c4c(ccc(-c5ccc6c(c5)OCO6)c4O)[C@H](N)[C@@]3(N)[C@H](O)[C@@]12N [CH] | ** (toxicities less than 25 μg/mL are represented by **)
CN(C)[C@@H]1C(O)=C(C(N)=O)C(=O)[C@@]2(C#N)C(O)=C3C(=O)c4c(O)ccc(-c5ccc6c(c5)OCO6)c4C[C@@]3(N)C[C@@]12N [EO] | ** (toxicities less than 25 μg/mL are represented by **)
CCC(=O)O[C@H]1[C@@]2(N)C(=C(O)[C@]3(C#N)C(=O)C(C(N)=O)=C(O)[C@@H](N(C)C)[C@]13N)C(=O)c1c(O)ccc(I)c1[C@@H]2N [CM] | ** (toxicities less than 25 μg/mL are represented by **)
CCCCOC(=O)Nc1cc(N(C)C)c2c(c1O)C(=O)C1=C(O)[C@]3(C#N)C(=O)C(C(N)=O)=C(O)[C@@H](N(C)C)[C@]3(N)C[C@]1(N)C2 [KI] | ** (toxicities less than 25 μg/mL are represented by **)
CN(C)[C@@H]1C(O)=C(C(N)=O)C(=O)[C@@]2(C#N)C(O)=C3C(=O)c4c(O)ccc(C#Cc5ccc(NS(C)(=O)=O)cc5)c4C[C@@]3(N)C[C@@]12N [HO] | ** (toxicities less than 25 μg/mL are represented by **)
CN(C)[C@@H]1C(O)=C(C(N)=O)C(=O)[C@@]2(C#N)C(O)=C3C(=O)c4c(ccc(-c5ccco5)c4O)[C@H](O)[C@@]3(N)[C@H](O)[C@@]12N [DY] | ** (toxicities less than 25 μg/mL are represented by **)
CCN(CC)c1ccc(-c2csc(Nc3ccc4c(c3O)C(=O)C3=C(O)[C@]5(C#N)C(=O)C(C(N)=O)=C(O)[C@@H](N(C)C)[C@]5(N)[C@@H](O)[C@]3(N)[C@H]4O)n2)cc1 [DU] | ** (toxicities less than 25 μg/mL are represented by **)
CN(C)c1cc(CNC(=O)C(Cc2ccccc2)N(C)C)c(O)c2c1C[C@@]1(N)C[C@@]3(N)[C@H](N(C)C)C(O)=C(C(N)=O)C(=O)[C@@]3(C#N)C(O)=C1C2=O (some centres unmarked) [SU] | ** (toxicities less than 25 μg/mL are represented by **)
